Source: ChEMBL document CHEMBL4118204, “Antidiabetic potential of phytochemicals isolated from the stem bark of Myristica fatua Houtt. var. magnifica (Bedd.) Sinclair” (Bioorg Med Chem, 2018)

Tests used:
Pancreatic alpha-amylase = target: T1, Pancreatic alpha-amylase (Sus scrofa, UniProt P00690); test: Inhibition of porcine pancreatic alpha-amylase using starch as substrate after 30 mins by iodine reagent based assay
T1 sequence (P00690 whole entry): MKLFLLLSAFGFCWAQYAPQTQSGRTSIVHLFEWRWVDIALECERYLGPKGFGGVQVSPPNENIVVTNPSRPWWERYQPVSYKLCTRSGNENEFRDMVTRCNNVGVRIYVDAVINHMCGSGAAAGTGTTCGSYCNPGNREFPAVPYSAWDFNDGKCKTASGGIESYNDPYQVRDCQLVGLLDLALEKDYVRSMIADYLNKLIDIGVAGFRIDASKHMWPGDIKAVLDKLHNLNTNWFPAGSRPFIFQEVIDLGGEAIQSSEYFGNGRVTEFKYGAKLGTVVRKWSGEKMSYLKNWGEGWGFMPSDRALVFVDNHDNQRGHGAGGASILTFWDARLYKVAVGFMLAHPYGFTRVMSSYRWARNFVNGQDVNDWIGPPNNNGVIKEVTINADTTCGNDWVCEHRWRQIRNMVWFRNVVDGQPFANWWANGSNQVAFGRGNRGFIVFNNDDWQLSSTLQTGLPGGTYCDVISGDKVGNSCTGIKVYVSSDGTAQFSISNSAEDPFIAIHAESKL

[1] = Inhibition of rat intestinal alpha-glucosidase using p-nitrophenyl alpha-D-glucopyranoside as substrate pretreated for 10 mins followed by substrate addition measured after 5 mins
L6 [2] = test: Cytotoxicity against rat L6 cells up to 50 uM after 24 hrs by MTT assay; type: cell-based; conditions: l6, 24 h
Albumin = Albumin (Bos taurus, UniProt P02769); test: Antiglycation activity in bovine serum albumin assessed as inhibition of advanced glycated end product formation after 24 hrs in presence of alpha-D-glucose by fluorescence assay
L6 [3] = test: Antidiabetic activity in rat L6 cells assessed as effect on 2-NBDG uptake at 10 uM pretreated for 24 hrs followed by 2-NBDG addition after 30 mins by FACS (reference value: 20%); type: functional
L6 [4] = test: Antidiabetic activity in rat L6 cells assessed as effect on 2-NBDG uptake at 25 uM pretreated for 24 hrs followed by 2-NBDG addition after 30 mins by FACS (reference value: 20%); type: functional
L6 [5] = test: Antidiabetic activity in rat L6 cells assessed as effect on 2-NBDG uptake at 50 uM pretreated for 24 hrs followed by 2-NBDG addition after 30 mins by FACS (reference value: 20%); type: functional
L6 [6] = test: Antidiabetic activity in rat L6 cells assessed as increase in 2-NBDG uptake pretreated for 24 hrs followed by 2-NBDG addition after 30 mins by FACS; type: functional, cell-based
L6 [7] = test: Antidiabetic activity in rat L6 cells assessed as effect on 2-NBDG uptake at 100 uM pretreated for 24 hrs followed by 2-NBDG addition after 30 mins by FACS (reference value: 20%); type: functional

Albumin, sequence (P02769 whole entry): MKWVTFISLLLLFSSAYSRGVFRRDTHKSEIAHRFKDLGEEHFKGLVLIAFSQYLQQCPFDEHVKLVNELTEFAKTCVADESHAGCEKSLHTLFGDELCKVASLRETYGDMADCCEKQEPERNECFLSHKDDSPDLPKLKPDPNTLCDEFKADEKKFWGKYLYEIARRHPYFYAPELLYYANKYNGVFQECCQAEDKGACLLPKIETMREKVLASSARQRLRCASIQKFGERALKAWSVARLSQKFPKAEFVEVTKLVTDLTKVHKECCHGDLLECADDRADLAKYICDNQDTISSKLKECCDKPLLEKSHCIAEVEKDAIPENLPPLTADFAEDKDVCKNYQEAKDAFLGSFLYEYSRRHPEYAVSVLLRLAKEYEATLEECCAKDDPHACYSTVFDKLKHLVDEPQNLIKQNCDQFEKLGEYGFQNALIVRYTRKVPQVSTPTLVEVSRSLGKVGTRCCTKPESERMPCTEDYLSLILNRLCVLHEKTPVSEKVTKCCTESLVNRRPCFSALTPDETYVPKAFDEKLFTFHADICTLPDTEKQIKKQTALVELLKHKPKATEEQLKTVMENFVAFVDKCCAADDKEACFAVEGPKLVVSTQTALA

SMILES	IC50 (Pancreatic alpha-amylase)	IC50 [1]	IC50 (Albumin)	Activity (L6 [2])	Activity (L6 [3])	Activity (L6 [4])	Activity (L6 [5])	Activity (L6 [6])	Activity (L6 [7])
CCCCCCCCCCCCCC(=O)c1c(O)cccc1O	74.1 µM	172 µM	121 µM	Non-Toxic	32.9%	34.1%	36.3%	Dose-dependent effect	
CCCCCCCCCCCCCC(=O)c1c(O)cccc1OC	39 µM	257 µM	192 µM	Non-Toxic	21.2%	28%	34.7%	Dose-dependent effect	
CN(C)C(=N)NC(=N)N [METFORMIN]									36.6%
CCCCCCCCCCCCC(=O)c1cccc(C(=O)O)c1	36.6 µM	372 µM	411 µM	Non-Toxic	17%	22.5%	31.5%	Dose-dependent effect	
C[C@H]1O[C@H](O[C@H]2[C@H](O)[C@@H](O)[C@@H](O[C@H]3[C@H](O)[C@@H](O)C(O)O[C@@H]3CO)O[C@@H]2CO)[C@H](O)[C@@H](O)[C@@H]1N[C@H]1C=C(CO)[C@@H](O)[C@H](O)[C@H]1O (some centres not stated) [ACARBOSE]		66.6 µM							

Now from value to compound, other results behind:

IC50 (Pancreatic alpha-amylase)	IC50 [1]	IC50 (Albumin)	SMILES	Activity (L6 [2])	Activity (L6 [3])	Activity (L6 [4])	Activity (L6 [5])	Activity (L6 [6])	Activity (L6 [7])
10.6 µM	43.6 µM	15 µM	O=C(CCCCCCCCc1ccc(O)c(O)c1)c1c(O)cccc1O [MALABARICONE C]	Non-Toxic	17%	18.3%	23.9%	Dose-dependent effect	
32.3 µM	94.5 µM	104 µM	COc1cccc(O)c1C(=O)CCCCCCCCc1ccc(O)cc1	Non-Toxic	18.3%	34.1%	34.6%	Dose-dependent effect	
12.9 µM	63.7 µM	40.3 µM	O=C(CCCCCCCCc1ccc(O)cc1)c1c(O)cccc1O [MALABARICONE B]		37.5%	45.8%	52.7%	Dose-dependent effect	
19.1 µM	91.4 µM	19.3 µM	O=C(CCCCCCCCc1ccccc1)c1c(O)cccc1O [MALABARICONE A]	Non-Toxic	32.9%	33.4%	36.7%	Dose-dependent effect	
